Columns and labels:
Assay in all cases: Antibacterial screen at 200 μg/mL (cell density vs control)
Type in all cases: cell-based
Details in all cases: peptide 200 μg/mL, CAMHB, 5 × 10^5 CFU/mL, 37°C, 12 h, OD600; control (no AMP) = 1; three biological replicates
[1] = system: Acinetobacter baumannii ATCC 19606
Description: (§1) Eight bacterial strains were utilized in the antibacterial experiment. S. aureus ATCC 12600, B. subtilis ATCC 23857, E. coli ATCC 11775, and A. baumannii ATCC 19606 were purchased from Shanghai Beinuo Biology. M. luteus ATCC 4698 and S. bongori ATCC43975 were purchased from Shanghai Beisi Biotechnology. V. owensii ems001 and V. alginolyticus xv22 from the intestines of diseased shrimps were isolated in our laboratory. All strains were cultured in the cation‐adjusted Mueller‐Hinton broth (CAMHB) at 37°C to the logarithmic growth phase (OD600 = 0.5). Then, bacteria were gradient‐diluted using fresh CAMHB to a bacterial density of 5 × 10^5 CFU/mL. Antibacterial experiments were performed in a 96‐well plate with 200 μg/mL final peptide concentration. Four experimental groups were set up, including a blank control (200 μL CAMHB), a negative control (180 μL CAMHB plus 20 μL peptide), a positive control (180 μL bacterial culture plus 20 μL ultrapure water), and an experimental group (180 μL bacterial culture plus 20 μL peptide). Three biological replicates were conducted for each group, and OD600 values were measured after incubation at 37°C for 12 h. Every observed value was removed from the blank control group value. The value of the experimental group was then subtracted from the value of the negative control group therefore eradicating the effect of the peptide on the OD measurement. Student's t‐test allowed the estimation of a notable variation between the experimental and positive groups using a p‐value of 0.05 as the limit. […] The MIC of a peptide against a bacterium was determined as the minimum peptide concentration at which there was no visible bacterial growth.

[2] = system: Bacillus subtilis ATCC 23857
Description: as §1

[3] = system: Escherichia coli ATCC 11775
Description: as §1

[4] = system: Micrococcus luteus ATCC 4698
Description: as §1

[5] = system: Salmonella bongori ATCC 43975
Description: as §1

[6] = system: Staphylococcus aureus ATCC 12600
Description: as §1

[7] = system: Vibrio alginolyticus xv22
Description: as §1

Vibrio owensii ems001 = system: Vibrio owensii ems001
Description: as §1

| Sequence | cell density relative to control, A. baumannii ATCC 19606 [1] | cell density relative to control, B. subtilis ATCC 23857 [2] | cell density relative to control, E. coli ATCC 11775 [3] | cell density relative to control, M. luteus ATCC 4698 [4] | cell density relative to control, S. bongori ATCC 43975 [5] | cell density relative to control, S. aureus ATCC 12600 [6] | cell density relative to control, V. alginolyticus xv22 [7] | cell density relative to control, V. owensii ems001 (Vibrio owensii ems001) |
| --- | --- | --- | --- | --- | --- | --- | --- | --- |
| MPKRPWRACSSIG [Cand-212, chemically synthesized candidate AMP predicted from marine biofilm bacteria] | 0.835 | 1 | 1 | 1 | 0.839 | 0.896 | 1 | 1 |
| MPKVKTKVCHRR [Cand-26, chemically synthesized candidate AMP predicted from marine biofilm bacteria] | 0.88 | 0.676 | 1 | 1 | 0.862 | 0.897 | 0 | 0.917 |
| MQPILKKAAPKHVGYFYKCYL [Cand-119, chemically synthesized candidate AMP predicted from marine biofilm bacteria] | 0.908 | 0.838 | 0.618 | 1 | 0.699 | 0 | 0.73 | 0.046 |
| MRHNMCRIGGRL [Cand-203, chemically synthesized candidate AMP predicted from marine biofilm bacteria] | 1 | 1 | 1 | 0.966 | 0.825 | 1 | 0.004 | 1 |
| MRKGCKLIPCICDVNCRRRTG [Cand-8, chemically synthesized candidate AMP predicted from marine biofilm bacteria] | 0.201 | 0.257 | 0 | 0 | 0 | 0.364 | 0.286 | 0.653 |
| MRPCMCRIGGGH [Cand-13, chemically synthesized candidate AMP predicted from marine biofilm bacteria] | 0.816 | 1 | 1 | 1 | 0.926 | 0.795 | 0.942 | 1 |
| MRPCMCRIGGRL [Cand-19, chemically synthesized candidate AMP predicted from marine biofilm bacteria] | 1 | 1 | 1 | 1 | 0.929 | 1 | 1 | 1 |
| MRPGMCRIGGRL [Cand-22, chemically synthesized candidate AMP predicted from marine biofilm bacteria] | 1 | 1 | 1 | 1 | 0.876 | 0.777 | 0.862 | 1 |
| MRPRLRKRLLR [Cand-187, chemically synthesized candidate AMP predicted from marine biofilm bacteria] | 0.766 | 0.002 | 0.674 | 0.703 | 0.256 | 0.68 | 0.84 | 1 |
| MRPSMCRIGGRL [Cand-38, chemically synthesized candidate AMP predicted from marine biofilm bacteria] | 0.836 | 0.805 | 0.861 | 1 | 1 | 0.771 | 1 | 1 |
| MRQGMCRIGGRL [Cand-55, chemically synthesized candidate AMP predicted from marine biofilm bacteria] | 0.845 | 0.908 | 0.915 | 1 | 1 | 0.793 | 0 | 1 |
| MRRFCCCRCSCCCWPS [Cand-25, chemically synthesized candidate AMP predicted from marine biofilm bacteria] | 1 | 1 | 0.835 | 1 | 0.847 | 0.422 | 1 | 0.067 |
| MRVGMCRIGGRL [Cand-79, chemically synthesized candidate AMP predicted from marine biofilm bacteria] | 0.975 | 0.837 | 0.73 | 1 | 0.975 | 0.728 | 0.8 | 1 |

From publication PMC11683478, “Bioprospecting of culturable marine biofilm bacteria for novel antimicrobial peptides” (iMeta, 2024)
